Experimental data reported in patent US9102678B2, “Compounds and methods for inhibiting mitotic progression” (Millennium Pharmaceuticals, Inc., priority 2004, dated 2015).
pIC50: −log10 of the molar value.

Target: T1, recombinant murine Aurora A enzyme (Mus musculus, UniProt P97477)
T1 construct: hexahistidine (His6) (N); made in house; host or cells: insect cells, baculovirus (Bac-to-Bac, Invitrogen)
Assay: Aurora A DELFIA Kinase Assay
Format: biochemical
Conditions: mouse Aurora A, 250 μM ATP; threshold less than or equal to 100 nM; read-out: IC50
From the text: Recombinant mouse Aurora A with an amino-terminus hexahistidine tag (His-Aurora A) was expressed using a standard baculovirus vector and insect cell expression system (Bac-to-Bac®, Invitrogen).
Soluble, recombinant mouse Aurora A was purified from insect cells using Ni-NTA agarose (Qiagen) as described by the manufacturer and further purified over an S75 size exclusion column (Amersham Pharmacia Biotech).
Aurora A DELFIA® Kinase Assay
The enzymatic reaction mixture, with and without Aurora inhibitors, was incubated for 15 minutes at room temperature before termination with 100 μL of stop buffer (1% BSA, 0.05% Surfact-AMPS-20, and 100 mM EDTA). A total of 100 μL of the enzyme reaction mixture was transferred to wells of a Neutravidin-coated 96-well plate (Pierce) and incubated at room temperature for 30 minutes. The wells were washed with wash buffer (25 mM Tris, 150 mM sodium chloride, and 0.1% Tween 20) and incubated for 1 hour with 100 μL of antibody reaction mixture containing 1% BSA, 0.05% Surfact-AMPS-20, anti-phospho-PKA rabbit polyclonal antibody (1:2000, New England Biolabs), and europium labeled anti-rabbit IgG (1:2000, Perkin Elmer). The wells were washed and then the bound europium was liberated using 100 μL of Enhancement Solution (Perkin Elmer). Quantification of europium was done using a Wallac™ EnVision (Perkin Elmer).

T1 sequence (P97477 whole entry): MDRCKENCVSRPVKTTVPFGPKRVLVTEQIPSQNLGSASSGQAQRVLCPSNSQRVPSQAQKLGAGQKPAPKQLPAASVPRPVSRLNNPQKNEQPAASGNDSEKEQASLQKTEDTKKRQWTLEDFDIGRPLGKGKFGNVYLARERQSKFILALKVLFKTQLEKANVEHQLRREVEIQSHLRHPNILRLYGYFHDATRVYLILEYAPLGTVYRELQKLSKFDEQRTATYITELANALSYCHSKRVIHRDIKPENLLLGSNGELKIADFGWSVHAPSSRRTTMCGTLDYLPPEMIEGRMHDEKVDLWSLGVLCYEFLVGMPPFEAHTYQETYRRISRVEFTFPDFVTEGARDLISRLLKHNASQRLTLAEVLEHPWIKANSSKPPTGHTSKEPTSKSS

pIC50	SMILES
≥ 7.00	Cc1ccccc1C1=NCc2cnc(Nc3ccc(C(=O)NCCN4CCOCC4)cc3)nc2-c2ccc(Cl)cc21 [Compound I-31, 4-(9-Chloro-7-o-tolyl-5H-benzo[c]pyrimido[4,5-e]azepin-2-ylamino)-N-(2-morpholin-4-yl-ethyl)-benzamide]
≥ 7.00	COc1ccccc1C1=NCc2cnc(Nc3ccc(C(=O)NCCCN4CCOCC4)cc3)nc2-c2ccc(Cl)cc21 [Compound I-32, 4-[9-Chloro-7-(2-methoxy-phenyl)-5H-benzo[c]pyrimido[4,5-e]azepin-2-ylamino]-N-(3-morpholin-4-yl-propyl)-benzamide]
≥ 7.00	O=C(O)c1ccc(Nc2ncc3c(n2)-c2ccc(Cl)cc2C(c2ccccc2F)=NC3)cc1 [Compound I-52, 4-[9-Chloro-7-(2-fluoro-phenyl)-5H-benzo[c]pyrimido[4,5-e]azepin-2-ylamino]-benzoic acid]
≥ 7.00	O=C(O)c1ccc(Nc2ncc3c(n2)-c2ccc(Cl)cc2C(c2ccccc2Cl)=NC3)cc1 [Compound I-53, 4-[9-Chloro-7-(2-chloro-phenyl)-5H-benzo[c]pyrimido[4,5-e]azepin-2-ylamino]-benzoic acid]
≥ 7.00	Cc1ccccc1C1=NCc2cnc(Nc3ccc(C(=O)O)cc3)nc2-c2ccc(Cl)cc21 [Compound I-54, 4-(9-Chloro-7-o-tolyl-5H-benzo[c]pyrimido[4,5-e]azepin-2-ylamino) -benzoic acid]
≥ 7.00	COc1ccccc1C1=NCc2cnc(Nc3ccc(C(=O)O)cc3)nc2-c2ccc(Cl)cc21 [Compound I-55, 4-[9-Chloro-7-(2-methoxy-phenyl)-5H-benzo[c]pyrimido[4,5-e]azepin-2-ylamino]-benzoic acid]
≥ 7.00	O=C(O)c1ccc(Nc2ncc3c(n2)-c2ccc(F)cc2C(c2ccccc2F)=NC3)cc1 [Compound I-57, 4-[9-Fluoro-7-(2-fluoro-phenyl)-5H-benzo[c]pyrimido[4,5-e]azepin-2-ylamino]-benzoic acid]
≥ 7.00	Cc1ccc2c(c1)C(c1ccccc1F)=NCc1cnc(Nc3ccc(C(=O)O)cc3)nc1-2 [Compound I-58, 4-[7-(2-Fluoro-phenyl)-9-methyl-5H-benzo[c]pyrimido[4,5-e]azepin-2-ylamino]-benzoic acid]
≥ 7.00	NC(=O)c1ccc(Nc2ncc3c(n2)-c2ccc(Cl)cc2C(c2ccccc2Cl)=NC3)cc1 [Compound I-63, 4-[9-Chloro-7-(2-chloro-phenyl)-5H-benzo[c]pyrimido[4,5-e]azepin-2-ylamino]-benzamide]
≥ 7.00	O=C(O)Cc1cccc(Nc2ncc3c(n2)-c2ccc(Cl)cc2C(c2ccccc2Cl)=NC3)c1 [Compound I-65, {3-[9-Chloro-7-(2-chloro-phenyl)-5H-benzo[c]pyrimido[4,5-e]azepin-2-ylamino]-phenyl}-acetic acid]
≥ 7.00	NC(=O)Cc1cccc(Nc2ncc3c(n2)-c2ccc(Cl)cc2C(c2ccccc2Cl)=NC3)c1 [Compound I-66, 2-{3-[9-Chloro-7-(2-chloro-phenyl)-5H-benzo[c]pyrimido[4,5-e]azepin-2-ylamino]-phenyl}-acetamide]
≥ 7.00	O=S(=O)(O)c1ccc(Nc2ncc3c(n2)-c2ccc(Cl)cc2C(c2ccccc2F)=NC3)cc1 [Compound I-67, 4-[9-Chloro-7-(2-fluoro-phenyl)-5H-benzo[c]pyrimido[4,5-e]azepin-2-ylamino]-benzenesulfonic acid]
≥ 7.00	Cc1cc(NS(=O)(=O)c2ccc(Nc3ncc4c(n3)-c3ccc(Cl)cc3C(c3ccccc3Cl)=NC4)cc2)no1 [Compound I-69, 4-[9-Chloro-7-(2-chloro-phenyl)-5H-benzo[c]pyrimido[4,5-e]azepin-2-ylamino]-N-(5-methyl-isoxazol-3-yl)-benzenesulfonamide]
≥ 7.00	COc1ccc(Nc2ncc3c(n2)-c2ccc(Cl)cc2C(c2ccccc2Cl)=NC3)cc1OC [Compound I-73, [9-Chloro-7-(2-chloro-phenyl)-5H-benzo[c]pyrimido[4,5-e]azepin-2-yl]-(3,4-dimethoxy-phenyl)-amine]
≥ 7.00	O=C(O)c1ccc(Nc2ncc3c(n2)-c2ccc(Cl)cc2C(c2ccccc2Cl)=NC3)cc1O [Compound I-86, 4-[9-Chloro-7-(2-chloro-phenyl)-5H-benzo[c]pyrimido[4,5-e]azepin-2-ylamino]-2-hydroxy-benzoic acid]
≥ 7.00	COc1ccc2c(c1)C(c1ccccc1F)=NCc1cnc(Nc3ccc(C(=O)N4CCC(N(C)C)C4)cc3)nc1-2 (stereo not drawn) [Compound I-93, (3-Dimethylamino-pyrrolidin-1-yl)-{4-[7-(2-fluoro-phenyl)-9-methoxy-5H-benzo[c]pyrimido[4,5-e]azepin-2-ylamino]-phenyl}-methanone]
≥ 7.00	CN(C)C1CN(C(=O)c2ccc(Nc3ncc4c(n3)-c3ccc(Cl)cc3C(c3ccccc3F)=NC4)cc2)C1 [Compound I-98, {4-[9-Chloro-7-(2-fluoro-phenyl)-5H-benzo[c]pyrimido[4,5-e]azepin-2-ylamino]-phenyl}-(3-dimethylamino-azetidin-1-yl)-methanone]
≥ 7.00	CN1CCC(N(C)C(=O)c2ccc(Nc3ncc4c(n3)-c3ccc(Cl)cc3C(c3ccccc3F)=NC4)cc2)C1 (stereo not drawn) [Compound I-99, 4-[9-Chloro-7-(2-fluoro-phenyl)-5H-benzo[c]pyrimido[4,5-e]azepin-2-ylamino]-N-methyl-N-(1-methyl-pyrrolidin-3-yl)-benzamide]
≥ 7.00	CN(C)C1CCN(C(=O)c2ccc(Nc3ncc4c(n3)-c3ccc(Cl)cc3C(c3ccccc3F)=NC4)cc2)C1 (stereo not drawn) [Compound I-100, {4-[9-Chloro-7-(2-fluoro-phenyl)-5H-benzo[c]pyrimido[4,5-e]azepin-2-ylamino]-phenyl}-(3-dimethylamino-pyrrolidin-1-yl)-methanone]
≥ 7.00	CNC1CCN(C(=O)c2ccc(Nc3ncc4c(n3)-c3ccc(Cl)cc3C(c3ccccc3F)=NC4)cc2)C1 (stereo not drawn) [Compound I-102, {4-[9-Chloro-7-(2-fluoro-phenyl)-5H-benzo[c]pyrimido[4,5-e]azepin-2-ylamino]-phenyl}-(3-methylamino-pyrrolidin-1-yl)-methanone]
≥ 7.00	NC1CCN(C(=O)c2ccc(Nc3ncc4c(n3)-c3ccc(Cl)cc3C(c3ccccc3F)=NC4)cc2)C1 (stereo not drawn) [Compound I-103, (3-Amino-pyrrolidin-1-yl)-{4-[9-chloro-7-(2-fluoro-phenyl)-5H-benzo[c]pyrimido[4,5-e]azepin-2-ylamino]-phenyl}-methanone]
≥ 7.00	CC1CN(C(=O)c2ccc(Nc3ncc4c(n3)-c3ccc(Cl)cc3C(c3ccccc3F)=NC4)cc2)CC(C)N1 (stereo not drawn) [Compound I-111, {4-[9-Chloro-7-(2-fluoro-phenyl)-5H-benzo[c]pyrimido[4,5-e]azepin-2-ylamino]-phenyl}-(3,5-dimethyl-piperazin-1-yl)-methanone]
≥ 7.00	O=C(O)C1CCCN1C(=O)c1ccc(Nc2ncc3c(n2)-c2ccc(Cl)cc2C(c2ccccc2F)=NC3)cc1 (stereo not drawn) [Compound I-112, 1-{4-[9-Chloro-7-(2-fluoro-phenyl)-5H-benzo[c]pyrimido[4,5-e]azepin-2-ylamino]-benzoyl}-pyrrolidine-2-carboxylic acid]
≥ 7.00	CC1CN(C(=O)c2ccc(Nc3ncc4c(n3)-c3ccc(Cl)cc3C(c3ccccc3F)=NC4)cc2)CCN1 (stereo not drawn) [Compound I-113, {4-[9-Chloro-7-(2-fluoro-phenyl)-5H-benzo[c]pyrimido[4,5-e]azepin-2-ylamino]-phenyl}-(3-methyl-piperazin-1-yl)-methanone]
